Marks after values point to notes of the source that are not given here. Ends that are not written are not given here. Peptide text beside a SMILES is read from it.
B1: rFCEE: truncated recombinant Factor C from pHILD2/CrFC21EE, amino acids 1-766, 90 kDa, with endotoxin-binding domain (protein, listed as Carcinoscorpius rotundicauda)
chain: MVLASFLVSGLVLGLLAQKMRPVQSKGVDLGLCDETRFECKCGDPGYVFNIPVKQCTYFYRWRPYCKPCDDLEAKDICPKYKRCQECKAGLDSCVTCPPNKYGTWCSGECQCKNGGICDQRTGACACRDRYEGVHCEILKGCPLLPSDSQVQEVRNPPDNPQTIDYSCSPGFKLKGMARISCLPNGQWSNFPPKCIRECAMVSSPEHGKVNALSGDMIEGATLRFSCDSPYYLIGQETLTCQGNGQWNGQIPQCKNLVFCPDLDPVNHAEHKVKIGVEQKYGQFPQGTEVTYTCSGNYFLMGFDTLKCNPDGSWSGSQPSCVKVADREVDCDSKAVDFLDDVGEPVRIHCPAGCSLTAGTVWGTAIYHELSSVCRAAIHAGKLPNSGGAVHVVNNGPYSDFLGSDLNGIKSEELKSLARSFRFDYVRSSTAGKSGCPDGWFEVDENCVYVTSKQRAWERAQGVCTNMAARLAVLDKDVIPNSLTETLRGKGLTTTWIGLHRLDAEKPFIWELMDRSNVVLNDNLTFWASGEPGNETNCVYMDIQDQLQSVWKTKSCFQPSSFACMMDLSDRNKAKCDDPGSLENGHATLHGQSIDGFYAGSSIRYSCEVLHYLSGTETVTCTTNGTWSAPKPRCIKVITCQNPPVPSYGSVEIKPPSRTNSISRVGSPFLRLPRLPLPLARAAKPPPKPRSSQPSTVDLASKVKLPEGHYRVGSRAIYTCESRYYELLGSQGRRCDSNGNWSGRPASCIPVCGRSDSPRSPFIWNG

Key:
[1] = Protection of galactosamine-sensitized mice from LPS-induced lethality; type: in vivo, C57BL/6J mice; conditions: 75 μg peptide, 2 ng LPS pre-incubated with peptide 30 minutes
Protocol: The anti-endotoxin potency of SSCrFCES was investigated in C57BL/6J mice. Mice are typically resistant to endotoxin. However, the sensitivity of mice to endotoxin can be enhanced >1,000-fold by co-injection with a liver-specific inhibitor, galactosamine (31). […] […] Lethality was observed over 3 days after injection. Statistical analysis were performed using the Kaplan-Meier test (32) and log rank pairwise test.

[2] = system: P. aeruginosa; assay: Microbicidal concentration (MBC) assay; type: cell-based, Pseudomonas aeruginosa; conditions: MBC
Protocol: Test strains cultured on Mueller-Hinton agar (MHA, Becton Dickinson, USA) were inoculated into 10 ml Mueller-Hinton broth (MHB, Becton Dickinson, USA) and grown overnight at 37° C. in a shaker incubator (Model 4536, Forma Scientific, Inc., USA) at 230 rpm. Overnight broth cultures were diluted to give a final cell density of 10^5 colony forming units/ml (cfu/ml). One hundred microliters of the bacterial suspension was dispensed into sterile polypropylene 8-strip PCR-tubes (Quality Scientific Plastics, USA). Eleven microliters of serially diluted sushi peptides, ranging in final concentrations of 0.03-4 μg/ml, were then added. The peptides were constituted at 10 times the required test concentrations in 0.01% acetic acid and 0.2% bovine serum albumin (BSA). Positive controls were cultures without test peptides. Uninoculated MHB was used as negative control. All tests were carried out in triplicate.
Cultures were incubated at 37° C. for 18-24 h, with the PCR-tubes held in horizontal position and shaken at 230 rpm. Cell counts were determined by standard drop-count method. The killing efficiency for the four sushi peptides were calculated based on standard drop-count method.

[3] = system: P. aeruginosa ATCC 27853; assay: Killing rate assay; type: cell-based, Pseudomonas aeruginosa; conditions: peptides at 0.06 μg/ml, initial 10^9 cfu/ml
Source text: The killing rate assay was adapted from the MBC test above, with different contact time of peptides with the bacteria arrested at regular intervals and plated for colony count. An initial density of 10^9 cfu/ml was used. […] This is one of the important features of an effective therapeutic agent.

[4] = system: THP-1 monocytes
Protocol: Two×10^4 THP-1 monocytes in 50 μl of RPMI 1640 were mixed in a microtitre plate with 50 μl of increasing amount of 2-fold serial dilutions of SSCrFCES (0.004-4.0 mg/ml in PBS) and incubated for 60 min at 37° C. To determine cytotoxicity induced by the SSCrFCES, 20 μl of CellTiter96™ AQueous One Solution Reagent (Promega) was added into each well for 90 min at 37° C. [3-(4,5-dimethylthiazol-2-yl)-5-(3-carboxymethoxyphenyl)-2-(4-sulfophenyl)-2H-tetrazolium (MTS) is bioreduced by metabolically active cells into a colored formazan product that is soluble in tissue culture medium (27, 28). For detection, the absorbance was measured at 490 nm. To determine the ratio of cell lysis induced by SSCrFCES, two controls were used. Complete lysis (100%) was achieved by incubating cells in phosphate buffer saline containing 0.2% Tween-20 instead of medium only. This absorbance value corresponded to the background, as those cells could not metabolize MTS. The second control representing 0% lysis was determined by incubating cells in medium only. […] The experiment was done in triplicate.

[5] = system: Human erythrocytes; assay: Hemolysis assay, human erythrocytes; type: cell-based; conditions: 100 μg/ml
Protocol: Human and rabbit erythrocytes were both used to test the hemolytic activities of the peptides. Whole blood was collected in heparinized sterile syringe, transferred to sterile borosilicate tube and centrifuged at 1200 g for 5 minutes at 4° C. The supernatant including the leukocytes above the erythrocyte pellet was discarded. The erythrocytes were washed 3 times using three volumes of prechilled pyrogen-free saline (PFS). An erythrocyte suspension at 0.4% was prepared for the hemolysis assay. Serial two-fold dilutions of the peptides was prepared in PFS and 100 μl aliquots were added to equal volumes of 0.4% erythrocyte solution in a 96-well microtiter plate (Nunclon™ Δ surface, Nunc) to give final peptide concentrations ranging from 6 to 100 μg/ml. The mixtures were incubated at 37° C. for 1 h. The intact erythrocytes were then pelleted by centrifuging at 1000 g for 5 min. One hundred μl of the supernatant was transferred to a new 96-well microtiter plate and the amount of hemoglobin released into the supernatant was determined by reading the absorbance at 414 nm using a SPECTRAmax™ 340 plate reader with SOFTmax PRO™ version 1.2.0. A positive control with 100 μl of 0.4% erythrocyte lysed in 1% Triton-X 100 was taken as 100% lysis. The negative control was the erythrocytes in PFS alone, which gave minimal lysis. This was taken as 0%.

[6] = system: Escherichia coli; conditions: time-kill kinetics tested on Escherichia coli; cited from earlier work
[7] = system: Escherichia coli ATCC#25922; assay: Bacteriostatic activity in in vitro culture, E. coli; type: cell-based; conditions: within 2 h of incubation
Protocol: (§1) The bacteria used for the assay were Escherichia coli ATCC#25922, Salmonella typhimurium ATCC#14028, Pseudomonas aeruginosa ATCC#27853, Klebsiella pneumoniae ATCC#13883 and […]. A colony of each Gram-negative bacterium was inoculated into nutrient broth (Gibco, BRL) and grown at 37° C. until it reached the logarithmic phase of growth. The culture was diluted with nutrient broth to give 1-5×10^5 cells/ml. Aliquots of 2 ml culture were incubated with 1 mg rFC/ml of culture. Incubation was carried out at 37° C. At time intervals of 0, 2, 4, 6, and 24 h, the bacterial culture was vortexed to break up any agglutinated clumps. After vortexing, each culture was examined under the microscope to ensure homogeneity of bacteria. The culture was serially diluted with 0.85% saline, plated on nutrient agar (Oxoid) and incubated overnight at 37° C. for colony counting.

[8] = Competition between rFC and CAL Factor C for LPS (fluorimetric assay); type: biochemical; conditions: Biomax-50 enriched, 100 μg
Protocol: Carcinoscorpius amoebocyte lysate (CAL) containing native Factor C was used in an assay in which rFC competed with CAL Factor C for LPS. Because the rFC produced in P. pastoris lacks serine protease activity, the competition can be monitored by measuring the reduced enzymatic activity of CAL in a fluorimetric assay. Mixtures of 100 μl each of increasing concentrations of LPS or rFC, in fluorimetric assay buffer (50 mM Tris HCl pH 8, containing 0.1 M NaCl and 0.01 M CaCl2) were incubated at 37° C. for 1 h. Aliquots of 20 μg CAL were added to each mixture and the total volumes were made up to 2 ml with fluorimetric assay buffer. The reaction was continued at 37° C. for 1 h and the fluorimetric assay protocol (64) was followed. This involved the addition of 15 μl of 2 mM fluorimetric substrate N-t-Boc-Val-Pro-Arg-7-amido-4-methylcoumarin (Sigma) and incubation at 37° C. for 30 min. The reaction was terminated by the addition of 0.1 ml of glacial acetic acid (Merck). The product, amino methylcoumarin, was measured in fluorescence units (FU) on a Luminescence Spectrometer LS-5 (Perkin-Elmer) with excitation light at 380 nm and emission at 460 nm.
The percentage competition by rFC of the native Factor C enzyme activity of CAL was calculated based on comparison of enzyme activity with the negative control of pHILD2/151. […]
[formula] where FU represents fluorescence units.

[9] = system: the various bacteria used; assay: Bacteriostatic activity in in vitro cultures, the various bacteria used; type: cell-based; conditions: crude full-length rFC; Sephadex G-100 enriched truncates
Protocol: as §1

[10] = Modified Western blot LPS-binding assay of rFC; parameters: species or system E. coli; conditions: 300 μg protein per LPS/lipid A strip
Protocol: LPS from E. coli 055:B5 (Sigma) was reconstituted to 2 μg/μl, and diphosphoryl lipid A from E. coli K12, D31m4 LPS (List Biologicals, Inc., USA) was made up to 1 μg/μl. The LPS-binding assay was based on modifications of earlier described protocols (45,61). Briefly, 10 μg aliquots of LPS/lipid A were electrophoresed on a denaturing 15% SDS-polyacrylamide gel and electroblotted onto Immobilon™ PVDF membrane. The membrane was cut into strips and each LPS/lipid A strip was subsequently incubated with 300 μg of proteins containing rFC. Detection of rFC binding to lipid A was accomplished by incubation with anti-Factor C antibody followed by alkaline phosphatase-conjugated secondary goat anti-rabbit antibody (Dako) and BCIP/NBT colorimetric substrate (Moss, Inc., USA).

Molecule | Cytotoxicity (Cell lysis) BC50 [4] | Haemolytic Activity at 100 μg/ml peptide (hu RBC) % lysis [5] | other results
CC[C@H](C)[C@H](NC(=O)[C@H](CCCNC(=N)N)NC(=O)[C@H](C)NC(=O)[C@H](CCSC)NC(=O)CNC(=O)[C@H](CCCCN)NC(=O)[C@H](CC(C)C)NC(=O)[C@H](CCCCN)NC(=O)[C@H](Cc1ccccc1)NC(=O)CN)C(=O)N[C@@H](CO)C(=O)N[C@@H](CS)C(=O)N[C@@H](CC(C)C)C(=O)N1CCC[C@H]1C(=O)N[C@@H](CC(N)=O)C(=O)NCC(=O)N[C@@H](CCC(N)=O)C(=O)N[C@@H](Cc1c[nH]c2ccccc12)C(=O)N[C@@H](CO)C(=O)N[C@@H](CC(N)=O)C(=O)N[C@@H](Cc1ccccc1)C(=O)N1CCC[C@H]1C(=O)N1CCC[C@H]1C(=O)N[C@@H](CCCCN)C(=O)N[C@@H](CS)C(=O)N[C@H](C(=O)N[C@@H](CCCNC(=N)N)C(=O)N[C@@H](CCC(=O)O)C(=O)N[C@@H](CS)C(=O)N[C@@H](C)C(=O)N[C@@H](CCSC)C(=O)N[C@H](C(=O)N[C@@H](CO)C(=O)N[C@@H](CO)C(=O)O)C(C)C)[C@@H](C)CC [S1] (H-GFKLKGMARISCLPNGQWSNFPPKCIRECAMVSS-OH; N-terminus and C-terminus assumed) |  |  | Mouse Protection Assay [1]: 22% at 75; Anti-microbial Potency P. aeruginosa MBC90 [2]: 0.03 µg/mL; Killing rate (time to achieve MBC90) [3]: 7 min
GVSTTVLNIYRGIINLLQLNVKK [S8-vg3] | 22 µM | 100% | 
RAEHKVKKIVKQLYGQFRQLTRVTRTCSRFLRRM [S4] | 3.8 µM | 20% | 
IYRGIINLIQLAVKKAQNVYQM [S9-vg4] | 35 µM | 75% | 
LLNAVPHKATHAALKFLKEK [S7-vg2] | 400 µM | 5% | 
HKVKKIVKQLYRAEHKVKKIVKQL [S5] | 33 µM | 0% | 
Magainin II |  |  | Killing rate [6]: 60^d min
Ranalexin |  |  | Killing rate [6]: >60^d min
Nisin |  |  | Killing rate [6]: 60^d min
MRKLVLALAKALAKVDKKNL [S6-vg1] | 26 µM | 5% | 
HAEHKVKIGVEQKYGQFPQGTEVTYTCSGNYFLM [S3] |  | 5% | 
B1 |  |  | agglutination of E. coli [7]: Agglutination; effect on the enzymatic activity of CAL Factor C [8]: markedly lower competitive effect; inhibitory effect on growth of the various bacteria [9]: did not have any inhibitory effect; binding to 7-20 kDa lipid A bands [10]: able to bind specifically to lipid A moiety of LPS, albeit less strongly
